{"source": "patent US5384408A", "about": "“Substituted pyrazine and its salts, compositions containing them and their use in medicine” (priority 1993, dated 1995)", "key": {"M1 muscarinic receptor": {"biological_target": "T1, M1 muscarinic receptor (Rattus norvegicus, UniProt P08482)", "T1 construct": "as measured in the rat ganglion; from tissue", "T1 sequence (P08482 1-460)": "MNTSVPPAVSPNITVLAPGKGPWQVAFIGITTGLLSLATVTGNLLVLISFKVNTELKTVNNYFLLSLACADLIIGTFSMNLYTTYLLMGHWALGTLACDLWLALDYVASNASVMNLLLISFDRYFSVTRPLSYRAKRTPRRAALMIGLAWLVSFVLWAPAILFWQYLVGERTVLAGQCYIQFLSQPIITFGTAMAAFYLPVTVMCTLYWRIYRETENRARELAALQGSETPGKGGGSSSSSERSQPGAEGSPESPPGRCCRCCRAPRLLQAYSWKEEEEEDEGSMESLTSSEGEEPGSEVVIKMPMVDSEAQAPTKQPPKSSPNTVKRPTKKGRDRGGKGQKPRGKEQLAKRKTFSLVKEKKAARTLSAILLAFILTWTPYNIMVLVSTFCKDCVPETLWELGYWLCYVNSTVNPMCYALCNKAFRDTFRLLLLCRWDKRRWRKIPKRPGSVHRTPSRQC", "experiment": "M1 muscarinic activity (method of Newberry et al.)", "format": "biochemical", "excerpt": "(§1) European Patent Application No. 89200147 (Publication No. 327155) discloses a class of pyrazines, pyridazines or pyrimidines, and salts and prodrugs thereof, substituted on one of the ring carbon atoms thereof with a non-aromatic azacyclic or azabicyclic ring system; and independently substituted on each of the other ring carbon atoms with a substituent of low lipophilicity or a hydrocarbon substituent, which compounds stimulate cholinergic transmission.\nThe following two compounds: 3(R)-[2-(6-trifluoromethyl) pyrazinyl]-1-azabicyclo[2.2.2]octane (Compound 1), and 3(R)-[2-(6chloro)pyrazinyl]-1-azabicyclo[2.2.2]octane (Compound 2) were tested for muscarinic activity using the method of Newberry, et al. (Br. J. Pharmacol, 1987, pp. 817-876). The specific M1 muscarinic activities of Compound 1 and Compound 2 were determined and the results are as follows: […]"}, "M3 muscarinic receptor [1]": {"biological_target": "T2, M3 muscarinic receptor (Cavia porcellus, UniProt H0W1Z3)", "T2 construct": "involving ileum preparation; from tissue; host or cells: ileum (guinea pig by b7)", "T2 sequence (H0W1Z3 1-590)": "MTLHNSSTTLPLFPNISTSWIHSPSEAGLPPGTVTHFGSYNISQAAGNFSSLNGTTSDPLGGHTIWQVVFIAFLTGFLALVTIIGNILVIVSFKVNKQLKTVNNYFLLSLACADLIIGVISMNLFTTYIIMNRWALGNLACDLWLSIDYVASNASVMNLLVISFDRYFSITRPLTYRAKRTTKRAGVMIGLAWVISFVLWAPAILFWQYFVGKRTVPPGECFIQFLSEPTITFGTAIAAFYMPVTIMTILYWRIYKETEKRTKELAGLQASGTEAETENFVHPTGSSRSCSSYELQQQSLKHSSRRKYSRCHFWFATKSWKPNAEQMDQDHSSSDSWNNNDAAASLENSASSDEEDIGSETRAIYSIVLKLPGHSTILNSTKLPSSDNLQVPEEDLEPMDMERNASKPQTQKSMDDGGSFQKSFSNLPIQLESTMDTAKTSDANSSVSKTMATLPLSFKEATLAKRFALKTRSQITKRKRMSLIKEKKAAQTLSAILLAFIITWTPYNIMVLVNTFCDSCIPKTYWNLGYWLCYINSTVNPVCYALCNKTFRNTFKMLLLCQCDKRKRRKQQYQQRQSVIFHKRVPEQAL", "experiment": "M3 muscarinic activity, ileum preparation (method of Freedman et al.)", "format": "biochemical, guinea pig", "settings": "for M3 receptor action (in words): ileum assay"}, "M2 (heart)": {"biological_target": "T3, M2 (heart) (Cavia porcellus, UniProt H0VRN8)", "T3 construct": "as measured in the guinea pig heart; from tissue; host or cells: guinea pig heart", "T3 sequence (H0VRN8 1-466)": "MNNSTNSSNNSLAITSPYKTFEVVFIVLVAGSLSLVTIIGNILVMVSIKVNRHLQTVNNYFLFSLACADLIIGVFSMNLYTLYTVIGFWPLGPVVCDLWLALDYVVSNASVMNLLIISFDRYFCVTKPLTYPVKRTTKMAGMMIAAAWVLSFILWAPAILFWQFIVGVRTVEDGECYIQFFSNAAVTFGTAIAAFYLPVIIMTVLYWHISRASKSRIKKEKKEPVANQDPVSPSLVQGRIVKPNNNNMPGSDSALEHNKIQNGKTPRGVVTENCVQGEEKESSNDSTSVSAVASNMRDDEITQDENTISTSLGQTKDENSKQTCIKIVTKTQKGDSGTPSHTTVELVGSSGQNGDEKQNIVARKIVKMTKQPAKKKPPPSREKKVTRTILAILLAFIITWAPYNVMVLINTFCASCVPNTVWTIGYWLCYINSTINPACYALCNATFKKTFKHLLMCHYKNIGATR", "experiment": "functional selectivity, heart M2 antagonist activity (methods of J. Med. Chem. 1987, 30, 969-975)", "format": "biochemical, guinea pig", "excerpt": "as §1\n(§2) 1. By the methods disclosed in J. Med. Chem. (1987), 30, 969-975 was determined the functional selectivity of compound (I): […]"}, "M3 (ileum)": {"biological_target": "T4, M3 (ileum) (Cavia porcellus, UniProt H0W1Z3)", "T4 construct": "guinea pig heart and guinea pig ileum; from tissue; host or cells: guinea pig ileum", "T4 sequence (H0W1Z3 1-590)": "as the sequence (H0W1Z3 1-590) above", "experiment": "functional selectivity, ileum M3 antagonist activity (methods of J. Med. Chem. 1987, 30, 969-975)", "format": "biochemical, guinea pig", "excerpt": "as §1, §2"}, "M1 (ganglion)": {"biological_target": "T5, M1 (ganglion) (Rattus norvegicus, UniProt P08482)", "T5 construct": "as measured in the rat ganglion; from tissue; host or cells: rat ganglion", "T5 sequence (P08482 1-460)": "T1 sequence (P08482 1-460)", "experiment": "functional selectivity, ganglion M1 agonist activity (methods of J. Med. Chem. 1987, 30, 969-975)", "format": "biochemical", "excerpt": "as §1, §2"}, "M3 muscarinic receptor [2]": {"system": "M3 muscarinic receptor", "experiment": "M3 muscarinic activity, ileum preparation (method of Freedman et al.)", "format": "biochemical, guinea pig", "settings": "versus reference 6-Cl compound"}, "intraocular pressure": {"system": "intraocular pressure", "experiment": "Glaucoma method: intraocular pressure in African Green monkeys", "format": "in vivo", "method": "Male or female African Green monkeys (2.0-4.5 kg) were fasted following their afternoon feeding on the day prior to the experiment. The monkeys were anaesthetised in their cages with approximately 10 mg/kg i.m. ketamine HCl (Vetalar or Ketaset). Once sedated, the animals were restrained in monkey chairs and brought to the laboratory. One drop of 0.5% proparacaine (Ophthetic) was instilled into each eye. After 30 seconds, intraocular pressure (IOP) determinations were taken in each eye (control or \"0\" time reading) using a Digilab Modular One Pneuma Tonometer. Both eyes were then flushed with saline. Vehicle or test agent (0.0005-2.0%) was administered (25 μl) into the cul-de-sac of both eyes and the IOP was determined at 0.5 and 1.0 hour and at hourly intervals thereafter for up to 5 hours and compared to the control IOP. For ocular instillation, 0.5% hydroxyethylcellulose (HEC) was employed as the vehicle. Supplemental doses of 10 mg or more/animal i.m. ketamine HCl were given 3-5 minutes prior to IOP determinations. Proparacaine HCl (0.5%) (one drop/eye) was also instilled immediately prior to IOP determinations. Following the final IOP determination, both eyes were flushed liberally with saline and a sterile ophthalmic ointment (Ilotycin, erythromycin, 5 mg/gm) was applied. […] Pupil diameter was measured under standard laboratory lighting conditions using a millimeter ruler. […]"}, "[3]": {"settings": "listed as 6-C1 reference compound"}}, "note": "pEC50: −log10 of the molar value. “Also recorded” adds a separate entry of the source. Read-outs that look alike come from different tables or passages of the source.", "data": [{"smiles": "Clc1cncc([C@H]2CN3CCC2CC3)n1", "note": "[Compound 2, 3(R)-[2-(6chloro)pyrazinyl]-1-azabicyclo[2.2.2]octane, reference compound]", "values": [{"measurement": "M1 muscarinic activity (in words)", "setting": "M1 muscarinic receptor", "result": "possess M1 muscarinic activity"}, {"measurement": "M1 muscarinic activity (in words)", "setting": "M1 muscarinic receptor; [3]", "result": "agonist on M1 receptors"}, {"measurement": "pEC50", "setting": "M3 muscarinic receptor [1]", "result": 7.52}, {"measurement": "M3 receptor action (in words)", "setting": "M3 muscarinic receptor [1]", "result": "M3 receptor agonist"}, {"measurement": "M3 receptor action (in words)", "setting": "M3 muscarinic receptor [1]; [3]", "result": "agonist on M3 receptors"}, {"measurement": "M3 muscarinic activity pA2", "setting": "M3 muscarinic receptor [1]; ileum preparation, antagonist", "result": "no measurable pA2 data"}]}, {"smiles": "FC(F)(F)c1cncc(C2CN3CCC2CC3)n1", "note": "(racemic) [(±) racemate, (±)-3-[2-(6-Trifluoromethylpyrazin)yl]-1-azabicyclo[2.2.2]octane]", "values": [{"measurement": "Kb", "setting": "M2 (heart)", "result": 25.1, "unit": "nM"}, {"measurement": "Kb", "setting": "M3 (ileum)", "result": 79.4, "unit": "nM"}, {"measurement": "pEC50", "setting": "M1 (ganglion)", "result": 6.30}]}, {"smiles": "FC(F)(F)c1cncc([C@@H]2CN3CCC2CC3)n1", "note": "[(-) base isomer]", "values": [{"measurement": "Kb", "setting": "M2 (heart); heart, antagonist, read-out: Heart M2 (pA2) (converted)", "result": 100, "unit": "nM"}, {"measurement": "Kb", "setting": "M3 (ileum); ileum, antagonist, read-out: Ileum M3 (pA2) (converted)", "result": 63.1, "unit": "nM"}, {"measurement": "Ganglion M1 (EC50)", "setting": "M1 (ganglion)", "result": "no agonist effect"}]}, {"smiles": "FC(F)(F)c1cncc([C@H]2CN3CCC2CC3)n1", "note": "[(I): (+) base isomer, (R)-(+)-3-[2-(6-Trifluoromethylpyrazin)yl]-1-azabicyclo[2.2.2]octane]", "values": [{"measurement": "Kb", "setting": "M2 (heart)", "result": 15.8, "unit": "nM"}, {"measurement": "Kb", "setting": "M3 (ileum)", "result": 15.8, "unit": "nM"}, {"measurement": "pEC50", "setting": "M1 muscarinic receptor", "result": 6.70}, {"measurement": "M1 muscarinic activity (in words)", "setting": "M1 muscarinic receptor; listed as 6-CF3 compound", "result": "retains M 1 muscarinic agonist activity comparable to that of the reference 6-C1 compound"}, {"measurement": "M1 muscarinic activity (in words)", "setting": "M1 muscarinic receptor; listed as Compound 1", "result": "possess M1 muscarinic activity"}, {"measurement": "pEC50", "setting": "M1 (ganglion)", "result": 6.70}, {"measurement": "selectivity of action, M1 over M3 (in words)", "setting": "M3 muscarinic receptor [2]", "result": "significantly greater selectivity of action"}, {"measurement": "Kb", "setting": "M3 muscarinic receptor [1]", "result": 15.8, "unit": "nM"}, {"measurement": "M3 receptor action (in words)", "setting": "M3 muscarinic receptor [1]; listed as 6-CF3 compound", "result": "not an agonist at the M3 receptor; also recorded: not an agonist of M3 receptors"}, {"measurement": "M3 receptor action (in words)", "setting": "M3 muscarinic receptor [1]; listed as Compound 1", "result": "acts as antagonist on M3 receptors"}, {"measurement": "Change in IOP (maximum mm Hg change in intraocular pressure)", "setting": "intraocular pressure; 0.05%, 25 μl into cul-de-sac of both eyes, up to 5 hours", "result": -3.5, "unit": "mm Hg"}, {"measurement": "intraocular pressure lowering (in words)", "setting": "intraocular pressure; glaucoma test", "result": "positive lowering of intraocular pressure"}]}]}
